Activity calls are given as the source filed them. No cut-off for these calls is given here.
Key:
[1] = Inhibition of Cav1.2 (unknown origin); design: species or system Homo sapiens
[2] = Tmax in mouse at 5.5 mg/kg, ip by HPLC/MS/MS analysis; assay type: ADME, organism-based; details: in vivo
[3] = Effect on cleaved PARP level in human NCI-H1417 cells assessed as fold change at 10 nM measured after 14 days by Western blot analysis (reference value: 1.00); assay type: functional; details: time 14 day
[4] = Effect on cleaved PARP level in human NCI-H69 cells assessed as fold change at 10 nM measured after 10 days by Western blot analysis (reference value: 1.00); assay type: functional; details: time 10 day
[5] = Effect on cleaved PARP level in human NCI-H526 cells assessed as fold change at 1000 nM measured after 10 days by Western blot analysis (reference value: 1.00); assay type: functional; details: time 10 day
[6] = Toxicity in mouse xenografted with human NCI-H526 cells assessed as grooming behaviour at 1.5 mg/kg, po administered daily measured for 30 days; assay type: organism-based; details: in vivo, 720 h, time 30 day
NCI-H526 [7] = assay: Upregulation of LSD1 signal enrichment at super enhancers in human NCI-H526 cells at 1 uM; assay type: functional, cell-based
[8] = Effect on cleaved PARP level in human NCI-H889 cells assessed as relative expression at 1000 nM measured after 14 days by Western blot analysis (reference value: 0.94); assay type: functional; details: time 14 day
[9] = Effect on cleaved PARP level in human NCI-H524 cells assessed as fold change at 10 nM measured after 7 days by Western blot analysis (reference value: 1.00); assay type: functional; details: time 7 day
[10] = Effect on cleaved PARP level in human NCI-H889 cells assessed as fold change at 100 nM measured after 7 days by Western blot analysis (reference value: 1.00); assay type: functional; details: time 7 day
SHP77 = assay: Antitumor activity against human SHP77 cells xenografted in nude mouse assessed as tumor growth inhibition at […] mg/kg, po administered daily measured twice weekly relative to control; assay type: functional; details: read-out: TGI
[11] = Effect on cleaved PARP level in human NCI-H524 cells assessed as relative expression at 10 nM measured after 7 days by Western blot analysis (reference value: 0.63); assay type: functional; details: time 7 day
[12] = Effect on cleaved PARP level in human COLO-668 cells assessed as fold change at 10 nM measured after 14 days by Western blot analysis (reference value: 1.00); assay type: functional; details: time 14 day
NCI-H526 [13] = assay: In vivo inhibition of LSD1 in human NCI-H526 cells xenografted in nude mouse assessed as change in TSPAN8 gene expression measured after 24 hrs post single administration by qRT-PCR analysis; assay type: functional, organism-based; details: dose 0.06-135 mg/kg
[14] = Effect on cleaved PARP level in human NCI-H510 cells assessed as fold change at 100 nM measured after 7 days by Western blot analysis (reference value: 1.00); assay type: functional, NCI-H510A; details: time 7 day
[15] = Effect on cleaved PARP level in human NCI-H889 cells assessed as fold change at 100 nM measured after 14 days by Western blot analysis (reference value: 1.00); assay type: functional; details: time 14 day
[16] = Effect on cleaved PARP level in human NCI-H69 cells assessed as relative expression at 10 nM measured after 10 days by Western blot analysis (reference value: 0.03); assay type: functional; details: time 10 day
[17] = Effect on cleaved PARP level in human NCI-H510 cells assessed as relative expression at 1000 nM measured after 7 days by Western blot analysis (reference value: 0.24); assay type: functional, NCI-H510A; details: time 7 day
[18] = Effect on cleaved PARP level in human NCI-H510 cells assessed as fold change at 1000 nM measured after 14 days by Western blot analysis (reference value: 1.00); assay type: functional, NCI-H510A; details: time 14 day
NCI-H526 [19] = assay: Antitumor activity against human NCI-H526 cells xenografted in nude mouse assessed as tumor growth inhibition at 1.5 mg/kg, po administered daily measured twice weekly relative to control; assay type: functional; details: read-out: TGI
[20] = Effect on cleaved PARP level in human NCI-H524 cells assessed as fold change at 100 nM measured after 10 days by Western blot analysis (reference value: 1.00); assay type: functional; details: time 10 day
NCI-H1417 = assay: Effect on caspase-3 level in human NCI-H1417 cells upto 1000 nM measured after 10 days by Western blot analysis; assay type: functional, cell-based; details: time 10.0 day
NCI-H526 [21] = assay: In vivo inhibition of LSD1 in human NCI-H526 cells xenografted in nude mouse assessed as change in ZEB1 gene expression administrated daily for 5 days by qRT-PCR analysis; assay type: functional, organism-based; details: dose 0.02-135 mg/kg, time 5.0 day
[22] = Effect on cleaved PARP level in human NCI-H1417 cells assessed as fold change at 10 nM measured after 10 days by Western blot analysis (reference value: 1.00); assay type: functional; details: time 10 day
[23] = Toxicity in rat assessed as morbidity measured for 28 days; details: in vivo, 672 h, time 28 day
[24] = Effect on cleaved PARP level in human NCI-H526 cells assessed as relative expression at 10 nM measured after 14 days by Western blot analysis (reference value: 0.66); assay type: functional; details: time 14 day
[25] = target: Amine oxidase [flavin-containing] B (Homo sapiens, UniProt P27338); assay: Inhibition of MAO-B (unknown origin)
[26] = Toxicity in mouse xenografted with human NCI-H526 cells assessed as body weight loss at 1.5 mg/kg, po administered daily measured for 30 days; assay type: organism-based; details: in vivo, 720 h, time 30 day
[27] = Effect on cleaved PARP level in human NCI-H1417 cells assessed as relative expression at 100 nM measured after 10 days by Western blot analysis (reference value: 0.19); assay type: functional; details: time 10 day
[28] = Effect on cleaved PARP level in human NCI-H524 cells assessed as relative expression at 10 nM measured after 14 days by Western blot analysis (reference value: […]); assay type: functional; details: time 14 day
NCI-H510A = assay: Effect on NSE gene expression in human NCI-H510A cells at 1 uM measured after 4 to 7 days by qRT-PCR analysis; assay type: functional, cell-based; details: time 4-7 day
[29] = Toxicity in rat assessed as thrombocytopenia measured for 28 days; details: in vivo, 672 h, time 28 day
[30] = Effect on cleaved PARP level in human NCI-H1694 cells assessed as fold change at 100 nM measured after 14 days by Western blot analysis (reference value: 1.00); assay type: functional; details: time 14 day
[31] = Effect on cleaved PARP level in human NCI-H1417 cells assessed as fold change at 1000 nM measured after 14 days by Western blot analysis (reference value: 1.00); assay type: functional; details: time 14 day
[32] = Effect on cleaved PARP level in human NCI-H1694 cells assessed as relative expression at 100 nM measured after 10 days by Western blot analysis (reference value: 0.31); assay type: functional; details: time 10 day
NCI-H446 = assay: Effect on NSE gene expression in human NCI-H446 cells at 1 uM measured after 4 to 7 days by qRT-PCR analysis; assay type: functional, cell-based; details: time 4-7 day
D-amino-acid oxidase = D-amino-acid oxidase (Homo sapiens, UniProt P14920)
Description: Binding affinity to D-amino acid oxidase (unknown origin) assessed as inactivation constant

[33] = Effect on cleaved PARP level in human NCI-H1417 cells assessed as relative expression at 10 nM measured after 7 days by Western blot analysis (reference value: 0.10); assay type: functional; details: time 7 day

Chain of Amine oxidase [flavin-containing] B (P27338 whole entry): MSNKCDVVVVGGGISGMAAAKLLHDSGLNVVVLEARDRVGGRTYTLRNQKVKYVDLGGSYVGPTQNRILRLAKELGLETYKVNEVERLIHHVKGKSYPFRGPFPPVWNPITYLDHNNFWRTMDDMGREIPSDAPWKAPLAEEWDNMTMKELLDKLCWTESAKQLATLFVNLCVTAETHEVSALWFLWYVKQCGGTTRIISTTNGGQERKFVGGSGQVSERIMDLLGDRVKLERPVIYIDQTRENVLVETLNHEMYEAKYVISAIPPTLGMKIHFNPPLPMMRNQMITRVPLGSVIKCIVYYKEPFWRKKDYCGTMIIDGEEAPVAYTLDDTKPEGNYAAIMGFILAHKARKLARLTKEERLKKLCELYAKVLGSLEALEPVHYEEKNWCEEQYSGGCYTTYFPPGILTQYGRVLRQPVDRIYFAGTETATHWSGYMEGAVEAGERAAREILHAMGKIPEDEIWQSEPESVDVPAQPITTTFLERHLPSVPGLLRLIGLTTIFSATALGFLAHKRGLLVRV
Chain of D-amino-acid oxidase (P14920 whole entry, looked up): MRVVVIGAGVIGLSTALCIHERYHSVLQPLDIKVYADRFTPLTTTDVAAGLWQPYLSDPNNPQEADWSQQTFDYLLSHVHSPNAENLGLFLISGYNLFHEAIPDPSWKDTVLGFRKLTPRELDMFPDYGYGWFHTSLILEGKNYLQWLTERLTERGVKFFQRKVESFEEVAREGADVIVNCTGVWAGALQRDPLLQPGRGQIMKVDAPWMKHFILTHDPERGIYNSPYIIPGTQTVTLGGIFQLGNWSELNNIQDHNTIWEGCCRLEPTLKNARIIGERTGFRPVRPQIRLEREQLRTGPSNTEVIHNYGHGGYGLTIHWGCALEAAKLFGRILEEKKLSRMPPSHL

## c1ccc([C@@H]2C[C@H]2NC2CCNCC2)cc1
[1]
  IC50: > 100 µM
[2]
  Tmax: 18 min

## O=C(O)c1ccc(CN2CCC(CN[C@@H]3C[C@H]3c3ccccc3)CC2)cc1 [GSK2879552]
[3]
  fold change (FC): 0.82
[4]
  fold change (FC): 1.74
[5]
  fold change (FC): 1.43
[6]
  Activity: Non-Toxic
NCI-H526 [7]
  Activity: Active
[8]
  Activity: 2.65
[9]
  fold change (FC): 0.99
[10]
  fold change (FC): 1.25
SHP77
  inhibition in vivo at 1.25 mg/kg: 17%
[11]
  Activity: 0.62
[12]
  fold change (FC): 0.41
NCI-H526 [13]
  inhibition: Dose-Dependent Effect
[14]
  fold change (FC): 1.84
[15]
  fold change (FC): 2.51
[16]
  Activity: 0.06
[17]
  Activity: 0.48
[18]
  fold change (FC): 2.61
NCI-H526 [19]
  inhibition in vivo at 1.5 mg/kg: 57%
[20]
  fold change (FC): 0.71
NCI-H1417
  Activity: inactive
NCI-H526 [21]
  inhibition: Dose-Dependent Effect
[22]
  fold change (FC): 1.44
[23]
  Activity: Toxic
[24]
  Activity: 0.48
[25]
  IC50: 20 µM
[26]
  Activity: Non-Toxic
[27]
  Activity: 0.4
[28]
  Activity: 1.2
NCI-H510A
  Activity: inactive
[29]
  Activity: Toxic
[30]
  fold change (FC): 0.89
[31]
  fold change (FC): 1.1
[32]
  Activity: 0.23
NCI-H446
  Activity: inactive
D-amino-acid oxidase
  Kinact: 0.12 min⁻¹
[33]
  Activity: 0.16

Reference: ChEMBL document CHEMBL5705903, “A DNA Hypomethylation Signature Predicts Antitumor Activity of LSD1 Inhibitors in SCLC” (Cancer Cell, 2015)
